Legend:
[1] = In vivo biodistribution of ^225Ac complexes of macropa and DOTA and of ^225Ac(NO3)3 in mice; design: species or system C57BL/6 mice
Method: In Vivo Biodistribution of ^225Ac Complexes of Macropa and DOTA. All experiments were approved by the Institutional Animal Care Committee (IACC) of the University of British Columbia and were performed in accordance with the Canadian Council on Animal Care Guidelines. A total of 9 female C57BL/6 mice (6-8 weeks old, 20-25 g) were used for the biodistribution study of each radiometal complex, n=3 for each time point.
Macropa (100 μL of a 1 mg/mL solution in NH4OAc) was diluted with 387 μL of NH4OAc (1 M, pH 7), and an aliquot (203 μL) of ^225Ac(NO3)3 (˜157 kBq) was then added; the pH of this solution was adjusted to 6.5-7 by the addition of 1 M NaOH (210 μL, trace metal grade). After 5 min at ambient temperature, the reaction solution was analyzed by TLC (0.4 M pH 4 sodium citrate as the eluent), which confirmed >95% radiochemical yield. The reaction was allowed to proceed overnight, and the radiochemical yield was again confirmed to be >95% the following morning. At this time, mice were anesthetized by 2% isoflurane, and approximately 100 μL (10-15 kBq) of the [^225Ac(macropa)]^+ complex were injected into the tail vein of each mouse. After injection, mice were allowed to recover and roam freely in their cages, and were euthanized by CO2 inhalation at 15 min, 1 h, or 5 h (n=3 at each time point) post-injection. Blood was collected by cardiac puncture and placed into an appropriate test tube for scintillation counting. Tissues collected included heart, liver, kidneys, lungs, small intestine, large intestine, brain, bladder, spleen, stomach, pancreas, bone, thyroid, tail, urine, and feces. Tissues were weighed and then counted with a calibrated gamma counter (Packard, Cobra II model 5002) using three energy windows: 60-120 keV (window A), 180-260 keV (window B), and 400-480 keV (window C). Counting was performed both immediately after sacrifice and after 7 days; counts were decay corrected from the time of injection and then converted to the percentage of injected dose (% ID) per gram of tissue (% ID/g). […]
The biodistribution studies of [^225Ac(DOTA)]^− and ^225Ac(NO3)3 were carried out as described above for [^225Ac(macropa)]^+, with the following modifications. [^225Ac(DOTA)^− was prepared by adding ^225Ac(NO3)3 (338 μL, 1.1 MBq) to a solution of DOTA (100 μg, 20 mg/mL in H2O) in NH4OAc (467 μL, 0.15 M, pH 7). The pH of the solution was adjusted to 7 using NH4OAc (150 μL, 1 M, pH 7) and the solution was heated at 85° C. for 45 min. RCY>99% was confirmed by TLC as described above. [^225Ac(DOTA)]^− was diluted with saline to a final concentration of 0.05 MBq/100 μL, and 100 μL were injected into each mouse. ^225Ac(NO3)3 (˜58 μL, 0.4 MBq) was diluted and injected in the same manner as [^225Ac(DOTA)]^−. One mouse that was to be euthanized at the 5 h time point in the [^225Ac(DOTA)]^− study died shortly after injection. In the same manner, one mouse that was to be euthanized at the 1 h time point in the ^225Ac(NO3)3 study died.
The in vivo stability [^225Ac(macropa)]^+ was examined by comparing its biodistribution to those of ^225Ac(NO3)3 and [^225Ac(DOTA)]^−. C57BL/6 mice were injected via tail vein with 10-50 kBq of each radiometal complex and were sacrificed after 15 min, 1 h, or 5 h. The amount of ^225Ac retained in each organ was quantified by gamma counting and reported as the percent of injected dose per gram of tissue (% ID/g). The results of these studies are compiled in Tables 1-3. Inadequate stability of an ^225Ac complex leading to the loss of radioisotope in vivo is manifested by the accumulation of ^225Ac in the liver, spleen, and bone of mice.^[11,12,32] […] The biodistribution profile of [^225Ac(macropa)]^+ (FIG. 3B) differs markedly from that of ^225Ac(NO3)3. […] Its biodistribution profile was similar to that of [^225Ac(DOTA)]^− (FIG. 3C), which has been previously shown to retain ^225Ac in vivo.^[7]

[2] = Kinetic inertness of La^3+ and Lu^3+ complexes of macropa: transchelation challenge with EDTA/DTPA; format: physicochemical; settings: in the presence of 1000 equiv of DTPA, pH 7.4, monitored 21 days by UV
Method: Kinetic Inertness of La^3+ and Lu^3+ Complexes of Macropa: Transchelation Challenge. A stock solution of ethylenediaminetetraacetic acid (EDTA, 100 mM) was made in MOPS buffer (prepared as described above) by adjusting the pH of the initial suspension to 6.6 using aqueous NMe4OH.
The preformed La^3+ and Lu^3+ complexes of macropa were challenged with EDTA.
The complex formed in situ between La^3+ and macropa was more rigorously challenged with excess DTPA. A solution containing 500 μM of complex, prepared using the LaCl3 and macropa stock solutions described above, was left to equilibrate for 5 min.
Before assessing its Ac-chelation properties, complex formation was evaluated in situ between macropa and cold La^3+ and Lu^3+ ions.

[3] = 1 h after i.v. injection, energy window C (400-480 keV)
[4] = 5 h after i.v. injection, energy window A (60-120 keV)

With `O=[N+]([O-])[O-].O=[N+]([O-])[O-].O=[N+]([O-])[O-].[225Ac]` [^225Ac(NO3)3, reference compound] the “Organ distribution: feces” value ([1]; 15 min after i.v. injection, energy window A (60-120 keV)) was 0.240 % ID/g, the “Organ distribution: feces” value ([1]; 1 h after i.v. injection, energy window B (180-260 keV)) was 0.3300 % ID/g and the “Organ distribution: thyroids” value [1, 3] was 0.0000 % ID/g. For the same molecule, the “Organ distribution: brain” value ([1]; 5 h after i.v. injection, energy window B (180-260 keV)) was 0.0290 % ID/g, the “Organ distribution: brain” value ([1]; 5 h after i.v. injection, energy window C (400-480 keV)) was 0.0430 % ID/g and the “blood clearance and excretion (in words)” value ([1]; i.v. injection, up to 5 h) was “slow blood clearance and excretion”. The “organ accumulation (in words)” value ([1]; i.v. injection, up to 5 h) was “large accumulation in the liver and spleen”.

For `O=C([O-])c1cccc(CN2CCOCCOCCN(Cc3cccc(C(=O)O)n3)CCOCCOCC2)n1.[La+3]` [La^3+ complex], the “time complex remained intact” value [2] was “up to 21 days”.

With `O=C([O-])CN1CCN(CC(=O)[O-])CCN(CC(=O)[O-])CCN(CC(=O)[O-])CC1.[225Ac+3]` [[^225Ac(DOTA)]^−, reference compound] the “Organ distribution: brain” value [1, 3] was 0.0380 % ID/g, the “Organ distribution: blood” value [1, 4] was 0.0140 % ID/g and the “Organ distribution: lungs” value [1, 4] was 0.0390 % ID/g.

— patent US12258339B2, “Macrocyclic complexes of alpha-emitting radionuclides and their use in targeted radiotherapy of cancer” (Cornell University, priority 2018, dated 2025)
